# Peptide text beside a SMILES is read from it.
# What was measured:
# ARPE-19 cells [1] = assay: ARPE-19 GAG-dependent cholesterol import (with or without heparin); assay type: cell-based, human; details: ARPE-19, 10 μM peptide
# Method: ARPE-19 cells were seeded on 96-well plates at 25,000 cells per well and grown to confluence. A 2× solution of 500 μM DMPC and 50 μM BODIPY-Cholesterol with or without 100 µg/mL heparin was prepared in serum free DMEM: F12. Peptides were diluted to 20 μM in serum free DMEM: F12 (a 2× solution). Peptides were added to lipid solution in equal parts (60 μL each) and incubated for 1 hour at 37° C. ARPE-19 cells were serum starved in serum free DMEM: F12 for 1 hour at 37° C. Peptide: Lipid complexes (100 μL total volume per well) were transferred to ARPE-19 cells for 2 hours at 37° C. Cells were washed, fixed, and intracellular fluorescence was read on Promega GloMax at 475 nm excitation, 500-550 emission. Fluorescence values were background corrected from no treatment conditions. Data are presented ±SD for 2 runs.
# HepG2 cells = assay: HepG2 GAG dependent cholesterol import (with or without heparin); assay type: cell-based; details: HepG2, 10 μM peptide, with or without 100 μg/mL heparin
# Method: HepG2 cells were seeded on 96-well plates at 10,000 cells per well and grown to confluence. A 2× solution of 500 μM DMPC and 50 μM BODIPY-Cholesterol with or without 100 μg/mL heparin was prepared in serum free EMEM. Peptides were diluted to 20 μM in serum-free EMEM (a 2× solution). Peptides were added to lipid solution in equal parts (60 μL each) and incubated for 1 hour at 37° C. HepG2 cells were serum starved in serum-free EMEM for 1 hour at 37° C. Peptide: Lipid complexes (100 μL total volume per well) were transferred to HepG2 cells for 2 hours at 37° C. Cells were washed, fixed, and intracellular fluorescence was read on Promega GloMax at 475 nm excitation, 500-550 emission. Fluorescence values were background corrected from no treatment conditions. Data are presented ±SD for 2 runs.
# ARPE-19 cells [2] = assay: ARPE-19 cholesterol import (BODIPY-Cholesterol); assay type: cell-based, human; details: ARPE-19, 0.37-30 μM peptide, FIG. 15
# Method: FIG. 12 and FIGS. 14A-14B illustrate the results of ARPE-19 cholesterol import testing. ARPE-19 cells were seeded on 96-well plates at 25,000 cells per well and grown to confluence. A 2× solution of 500 μM DMPC and 50 μM BODIPY-Cholesterol were prepared in serum free DMEM: F12. Peptides were diluted to 20 μM in serum free DMEM: F12 (a 2× solution). Peptides were added to lipid solution in equal parts (60 μL each) and were incubated for 1 hour at 37° C. ARPE-19 cells were serum starved in serum free DMEM: F12 for 1 hour at 37° C. Peptide: Lipid complexes (100 μL total volume per well) were transferred to ARPE-19 cells for 2 hours at 37° C. Cells were washed, fixed, and intracellular fluorescence was read on Promega GloMax at 475 nm excitation, 500-550 emission. Fluorescence values were background corrected from no treatment conditions. Data are presented as mean+SD for two runs.
# FIG. 15 illustrates ARPE-19 cholesterol import titration curves for a subset of the peptides. ARPE-19 cells were seeded on 96-well plates at 25,000 cells per well and grown to confluence. A 2× solution of 500 μM DMPC and 50 μM BODIPY-Cholesterol was prepared in serum free DMEM: F12. Peptides were diluted to 0.74-60 μM in serum free DMEM: F12 (2× solutions). Peptides were added to lipid solution in equal parts (60 μL each) to create final peptide concentrations of 0.37-30 µM and incubated for 1 hour at 37° C. ARPE-19 cells were serum starved in serum free DMEM: F12 for 1 hour at 37° C. Peptide: Lipid complexes (100 μL total volume per well) were transferred to ARPE-19 cells for 2 hours at 37° C. Cells were washed, fixed, and intracellular fluorescence was read on Promega GloMax at 475 nm excitation, 500-550 emission. Fluorescence values were background corrected from no treatment conditions. […]
# ARPE-19 cells were seeded on 96-well plates at 25,000 cells per well and grown to confluence. […] Cells were washed, fixed, and intracellular fluorescence was read on Promega GloMax at 475 nm excitation, 500-550 emission. Fluorescence values were background corrected from no treatment conditions. […]
# [3] = peptide binding to non-oxidized and oxidized lipids (SPR); details: immobilized peptide; RU normalized to DMPC
# Method: FIGS. 25A-25O show peptide binding activity to non-oxidized and oxidized lipids via SPR for indicated peptides. Peptides were reconstituted to 50 μg/mL in 10 mM acetate buffer, pH 4.5 and immobilized to ˜200 RU on a CM5 chip via amine coupling. Non-oxidized lipids (DMPC & POPC) and oxidized lipids (POVPC & KOdiA-PC) were diluted to 100 µM in HBS-EP running buffer and exposed to the chip for binding (n=3) at a flow rate of […] for 120 seconds. The surface was regenerated with 20% EtOH. T-001 served as a positive control and T-031 served as a negative control on each chip. For each peptide, the RU response for all lipids was normalized to the DMPC RU values.
smiles,measurement,setting,value
CC[C@H](C)[C@H](NC(=O)CNC(=O)[C@H](CO)NC(=O)[C@@H](NC(=O)[C@H](Cc1c[nH]c2ccccc12)NC(=O)[C@H](Cc1c[nH]cn1)NC(=O)[C@H](CCC(=O)O)NC(=O)[C@H](Cc1ccccc1)NC(=O)[C@H](CCCNC(=N)N)NC(=O)[C@H](CC(C)C)NC(=O)[C@H](CC(C)C)NC(=O)[C@H](CCCNC(=N)N)NC(=O)[C@H](CCCCN)NC(=O)[C@H](CCCNC(=N)N)NC(=O)[C@H](CC(C)C)NC(=O)[C@H](CCCCN)NC(=O)[C@H](CCCNC(=N)N)NC(=O)[C@H](CC(C)C)NC(=O)[C@@H](N)Cc1c[nH]cn1)[C@@H](C)CC)C(=O)N[C@@H](Cc1ccc(O)cc1)C(=O)N[C@@H](CO)C(=O)N[C@@H](CCC(=O)O)C(=O)N[C@@H](CS)C(=O)N[C@@H](CCCCN)C(=O)N[C@@H](Cc1c[nH]cn1)C(=O)N[C@@H](CC(C)C)C(=O)N[C@H](C(=O)N[C@@H](CCC(N)=O)C(=O)N[C@@H](CCC(=O)O)C(=O)O)[C@@H](C)CC [T-025] (H-HLRKLRKRLLRFEHWISGIYSECKHLIQE-OH; N-terminus and C-terminus assumed),GAG dependence of cholesterol import,ARPE-19 cells [1],rely on GAG binding for cholesterol import activity
same,GAG dependence of cholesterol import,HepG2 cells,rely on GAG binding for cholesterol import activity
same,cholesterol import titration,ARPE-19 cells [2],concentration-dependent increase in cholesterol import
same,binding to oxidized lipids relative to DMPC,[3],binding to at least one oxidized lipid that was equivalent or improved to binding against DMPC

# Source: patent US20260115250A1, “METHODS OF TREATING AGE-RELATED MACULAR DEGENERATION” (Character Biosciences, Inc., priority 2022, published 2026)
